Laboratory results reported in the CheMixHub ionic liquid set.

Test: xn = mol fraction of the nth substance listed

CCCCCn1cc[n+](C)c1.O=S(=O)([N-]S(=O)(=O)C(F)(F)F)C(F)(F)F + O
100 kPa, x2 = 0.2211
Conditions | viscosity [mPa·s]
313.15 K | 22.15
318.15 K | 18.86

C[N+](C)(C)CCO.O=C([O-])[C@@H]1CCCN1 + O
viscosity [mPa·s], 100 kPa
Conditions | x1 = 0.01436 | x1 = 0.02022 | x1 = 0.03417
308.15 K | 1.18 | 1.23 | –
338.15 K | – | – | 1.23

NCCOCCO + O + CCCC[n+]1ccn(C)c1.O=S(=O)([O-])C(F)(F)F
viscosity [mPa·s], 101 kPa
Conditions | 293.15 K | 298.15 K | 303.15 K | 308.15 K | 313.15 K | 318.15 K | 323.15 K | 328.15 K | 333.15 K
x1 = 0.182, x2 = 0.8049 | 11.31 | 9.2 | 7.59 | 6.34 | 5.37 | 4.581 | 3.959 | 3.457 | 3.052
x1 = 0.2233, x2 = 0.7322 | 15.97 | 12.84 | 10.48 | 8.66 | 7.252 | 6.139 | 5.248 | 4.534 | 3.956
x1 = 0.4053, x2 = 0.4752 | 28.79 | 22.55 | 17.99 | 14.6 | 12.01 | 10.05 | 8.52 | 7.25 | 6.179

O=[N+]([O-])[O-].O=[N+]([O-])[O-].[Mg+2] + O + CC[NH3+].O=[N+]([O-])[O-]
100 kPa
Conditions | electrical conductivity [S/m] | viscosity [mPa·s]
223 K, x1 = 0.2128, x2 = 0.6185 | 0.001 | –
233 K, x1 = 0.2128, x2 = 0.6185 | 0.006 | –
243 K, x1 = 0.1395, x2 = 0.4931 | 0.002 | –
243 K, x1 = 0.2128, x2 = 0.6185 | 0.02 | –
253 K, x1 = 0.1395, x2 = 0.4931 | 0.019 | –
253 K, x1 = 0.2128, x2 = 0.6185 | 0.052 | –
263 K, x1 = 0.1395, x2 = 0.4931 | 0.077 | –
263 K, x1 = 0.2128, x2 = 0.6185 | 0.113 | –
273 K, x1 = 0.1395, x2 = 0.4931 | 0.206 | –
273 K, x1 = 0.2128, x2 = 0.6185 | 0.216 | –
283 K, x1 = 0.1395, x2 = 0.4931 | 0.429 | –
283 K, x1 = 0.2128, x2 = 0.6185 | 0.375 | –
288.15 K, x1 = 0.1395, x2 = 0.4931 | – | 172
288.15 K, x1 = 0.2128, x2 = 0.6185 | – | 334
293 K, x1 = 0.1395, x2 = 0.4931 | 0.76 | –
293 K, x1 = 0.2128, x2 = 0.6185 | 0.602 | –
293.15 K, x1 = 0.1395, x2 = 0.4931 | – | 138.7
293.15 K, x1 = 0.2128, x2 = 0.6185 | – | 253
298.15 K, x1 = 0.1395, x2 = 0.4931 | – | 112.6
298.15 K, x1 = 0.2128, x2 = 0.6185 | – | 193
303 K, x1 = 0.1395, x2 = 0.4931 | 1.2 | –
303 K, x1 = 0.2128, x2 = 0.6185 | 0.91 | –
303.15 K, x1 = 0.1395, x2 = 0.4931 | – | 92
303.15 K, x1 = 0.2128, x2 = 0.6185 | – | 148.9
308.15 K, x1 = 0.1395, x2 = 0.4931 | – | 75.7
308.15 K, x1 = 0.2128, x2 = 0.6185 | – | 115.8
313 K, x1 = 0.1395, x2 = 0.4931 | 1.74 | –
313 K, x1 = 0.2128, x2 = 0.6185 | 1.31 | –
313.15 K, x1 = 0.1395, x2 = 0.4931 | – | 62.7
313.15 K, x1 = 0.2128, x2 = 0.6185 | – | 90.7
323 K, x1 = 0.1395, x2 = 0.4931 | 2.37 | –
323 K, x1 = 0.2128, x2 = 0.6185 | 1.8 | –
333 K, x1 = 0.1395, x2 = 0.4931 | 3.08 | –
333 K, x1 = 0.2128, x2 = 0.6185 | 2.39 | –
343 K, x1 = 0.1395, x2 = 0.4931 | 3.86 | –
343 K, x1 = 0.2128, x2 = 0.6185 | 3.08 | –
353 K, x1 = 0.1395, x2 = 0.4931 | 4.69 | –
353 K, x1 = 0.2128, x2 = 0.6185 | 3.88 | –
363 K, x1 = 0.1395, x2 = 0.4931 | 5.56 | –
363 K, x1 = 0.2128, x2 = 0.6185 | 4.78 | –
373 K, x1 = 0.1395, x2 = 0.4931 | 6.46 | –
373 K, x1 = 0.2128, x2 = 0.6185 | 5.78 | –

CCCC[n+]1ccn(C)c1.O=[N+]([O-])[O-] + O + NCCO
100 kPa
Conditions | viscosity [mPa·s]
303 K, x1 = 0.2218, x2 = 0.4128 | 15.07
303 K, x1 = 0.2959, x2 = 0.2542 | 17.98
308 K, x1 = 0.2218, x2 = 0.4128 | 12.54
308 K, x1 = 0.2959, x2 = 0.2542 | 14.93
313 K, x1 = 0.01284, x2 = 0.8603 | 2.342
313 K, x1 = 0.02953, x2 = 0.8245 | 2.9
313 K, x1 = 0.05213, x2 = 0.7761 | 3.701
313 K, x1 = 0.08442, x2 = 0.707 | 4.94
313 K, x1 = 0.1343, x2 = 0.6001 | 6.9
313 K, x1 = 0.2218, x2 = 0.4128 | 10.58
313 K, x1 = 0.2959, x2 = 0.2542 | 12.55
313 K, x1 = 0.4146, x2 = 0 | 17.77
318 K, x1 = 0.2218, x2 = 0.4128 | 9.05
318 K, x1 = 0.2959, x2 = 0.2542 | 10.69
323 K, x1 = 0.2218, x2 = 0.4128 | 7.81
323 K, x1 = 0.2959, x2 = 0.2542 | 9.2

C[NH+](C)C.O=S(=O)([N-]S(=O)(=O)C(F)(F)F)C(F)(F)F + O=C1CCCO1
101 kPa
Conditions | electrical conductivity [S/m] | viscosity [mPa·s]
298.15 K, x1 = 0.0005 | 0.043 | –
298.15 K, x1 = 0.0008 | 0.059 | –
298.15 K, x2 = 0.5239 | 1.89 | –
303.15 K, x2 = 0.8088 | – | 3.08
303.15 K, x2 = 0.8803 | – | 2.34
313.15 K, x2 = 0.672 | – | 3.62
313.15 K, x2 = 0.8803 | – | 1.86
333.15 K, x2 = 0.7428 | – | 1.87
343.15 K, x2 = 0.8803 | – | 0.98
